# Patent US8507533B2, “Glucagon receptor modulators” (Pfizer Inc., priority 2011, dated 2013)
# Tests used:
# human glucagon receptor [1] = target: T1, human glucagon receptor (Homo sapiens (Human), UniProt P47871); assay: Glucagon cAMP Assay (Cisbio cAMP detection); assay type: cell-based; settings: CHOK1 cells stably transfected with the human glucagon receptor; block of glucagon induced cAMP production; Kb by modified Cheng-Prusoff equation
# human glucagon receptor [2] = target: T1, human glucagon receptor; assay: Human Glucagon SPA Assay (binding of [125I]Glucagon-Cex); settings: membrane from chem-1 cells stably transfected with the human glucagon receptor, Ki by Cheng-Prusoff equation
# Protocol: The Glucagon SPA assay is used to determine the ability of test compounds to block the binding of glucagon-cex to the glucagon receptor. Test compounds are re-suspended and serially diluted in 100% DMSO. 1 μl of test compound at the desired concentrations is spotted into the appropriate wells of 96 well low binding white clear bottom plate (Corning). 1 μl of DMSO is spotted into total binding wells. 1 μl of a known glucagon antagonist at a concentration of 20 μM is added to non specific binding wells. […] All assay ingredients with the exception of test compounds are re-suspended in the following buffer; 50 mM Hepes pH 7.4; 5 mM MgCl2; 1 mM CaCl; 5% glycerol and 0.2% BSA. Following a 6-10 hr incubation at room temperature the amount of hot ligand bound to the cell membranes is determined by reading the plates on a Wallac Trilux radioactive emission detector. Data is analyzed using Pfizer's Data analysis program. IC50 values are then determined from the generated sigmoidal dose response curves. Ki values are calculated using Cheng-Prusoff equation. N is the number of times the compound was assayed.
# T1 sequence (P47871 26-477): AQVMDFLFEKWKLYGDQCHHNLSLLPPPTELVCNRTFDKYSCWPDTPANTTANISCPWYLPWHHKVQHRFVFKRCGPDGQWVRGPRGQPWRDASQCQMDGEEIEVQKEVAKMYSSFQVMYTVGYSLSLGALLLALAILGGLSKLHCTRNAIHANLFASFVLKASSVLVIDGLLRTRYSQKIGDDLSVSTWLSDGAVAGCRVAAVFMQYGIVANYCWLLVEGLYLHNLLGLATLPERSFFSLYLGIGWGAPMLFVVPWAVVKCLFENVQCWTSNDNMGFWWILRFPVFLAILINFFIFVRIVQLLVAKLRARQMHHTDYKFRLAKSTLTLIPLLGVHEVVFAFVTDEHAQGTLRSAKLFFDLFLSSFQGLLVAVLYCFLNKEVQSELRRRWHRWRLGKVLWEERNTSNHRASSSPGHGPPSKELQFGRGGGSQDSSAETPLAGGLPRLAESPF
Compound,Kb (human glucagon receptor [1]),Ki (human glucagon receptor [2])
"Cc1cc(OC(c2ccc(C(=O)NCCC(=O)O)cc2)C2CC(C)(C)C2)cc(C)c1-n1cc(C(F)(F)F)cn1 (racemic) [Example 152, (+/−)-3-(4-((3,5-dimethyl-4-(4-(trifluoromethyl)-1H-pyrazol-1-yl)phenoxy)(3,3-dimethylcyclobutyl)methyl)benzamido)propanoic acid]",301 nM,35.2 nM
"CCCC(Oc1cc(C)c(-n2cc(C(F)(F)F)cn2)c(OC)c1)c1ccc(C(=O)NCCC(=O)O)cc1 (racemic) [Example 153, (+/−)-3-(4-(1-(3-methoxy-5-methyl-4-(4-(trifluoromethyl)-1H-pyrazol-1-yl)phenoxy)butyl)benzamido)propanoic acid]",225 nM,32.3 nM
"O=C(O)CCNC(=O)c1ccc(C(Nc2ccc(-n3cnc(C(F)(F)F)c3)nc2)C2CC(F)(F)C2)cc1 (racemic) [Example 154, (+/−)-3-(4-((3,3-difluorocyclobutyl)(6-(4-(trifluoromethyl)-1H-imidazol-1-yl)pyridin-3-ylamino)methyl)benzamido)propanoic acid]",629 nM,235 nM
"CCCC(Nc1ccc(-n2cnc(-c3ccccc3)c2)nc1)c1ccc(C(=O)NCCC(=O)O)cc1 (racemic) [Example 162, (+/−)-3-(4-(1-(6-(4-phenyl-1H-imidazol-1-yl)pyridin-3-ylamino)butyl)benzamido)propanoic acid]",55.8 nM,47.3 nM
"Cc1nn(-c2ccc(NC(c3ccc(C(=O)NCCC(=O)O)cc3)C3CCCC3)cn2)cc1Cl (racemic) [Example 163, (+/−)-3-(4-((6-(4-chloro-3-methyl-1H-pyrazol-1-yl)pyridin-3-ylamino)(cyclopentyl)methyl)benzamido)propanoic acid]",42.7 nM,65.9 nM
CCCC(Nc1ccc(-n2cc(-c3ccccn3)cn2)nc1)c1ccc(C(=O)NCCC(=O)O)cc1 (racemic) [Example 164],52.4 nM,192 nM
"CCCC(Nc1ccc(-n2cc(-c3ccccc3)cn2)nc1)c1ccc(C(=O)N(C)CCC(=O)O)cc1 (racemic) [Example 165, (+/−)-3-(N-methyl-4-(1-(6-(4-phenyl-1H-pyrazol-1-yl)pyridin-3-ylamino)butyl)benzamido)propanoic acid]",305 nM,142 nM
"CCCC(Nc1ccc(-n2cc(C3CC3)cn2)nc1)c1ccc(C(=O)NCCC(=O)O)cc1 (racemic) [Example 176, (+/−)-N-[4-(1-{[6-(4-cyclopropyl-1H-pyrazol-1-yl)pyridin-3-yl]amino}butyl)benzoyl]-beta-alanine]",79.1 nM,101 nM
"O=C(O)CCNC(=O)c1ccc(C(Nc2ccc(-n3cc(C(F)(F)F)cn3)nc2)C2CCOCC2)cc1 (racemic) [Example 177, (±)-3-(4-((tetrahydro-2H-pyran-4-yl)((6-(4-(trifluoromethyl)-1H-pyrazol-1-yl)pyridin-3-yl)amino)methyl)benzamido)propanoic acid]",2340 nM,432 nM
"CC(C)(C)C(Nc1ccc(-n2cc(C(F)(F)F)cn2)nc1)c1ccc(C(=O)NCCC(=O)O)cc1 (racemic) [Example 178, (±)-3-(4-(2,2-dimethyl-1-((6-(4-(trifluoromethyl)-1H-pyrazol-1-yl)pyridin-3-yl)amino)propyl)benzamido)propanoic acid]",215 nM,37.4 nM
"CC(C)(C)C(Nc1ccc(-n2cnc(C(F)(F)F)c2)nc1)c1ccc(C(=O)NCCC(=O)O)cc1 (racemic) [Example 181, (±)-3-(4-(2,2-dimethyl-1-((6-(4-(trifluoromethyl)-1H-imidazol-1-yl)pyridin-3-yl)amino)propyl)benzamido)propanoic acid]",195 nM,87.2 nM
"CCCC(Oc1cc(F)c(-n2cc(C(F)(F)F)cn2)c(F)c1)c1ccc(C(=O)NCCC(=O)O)cc1 (racemic) [Example 184, (+/−)-3-(4-{1-[3,5-difluoro-4-(4-trifluoromethyl-pyrazol-1-yl)-phenoxy]-butyl}-benzoylamino)-propionic acid]",321 nM,240 nM
"CCCC(Oc1ccc(-n2cc3cc(F)ccc3n2)cc1)c1ccc(C(=O)NCCC(=O)O)cc1 (racemic) [Example 185, (+/−)-3-(4-{1-[4-(5-fluoro-indazol-2-yl)-phenoxy]-butyl}-benzoylamino)-propionic acid]",175 nM,137 nM
"CCCC(Oc1ccc(-n2cc3ccc(F)cc3n2)cc1)c1ccc(C(=O)NCCC(=O)O)cc1 (racemic) [Example 186, (+/−)-3-(4-{1-[4-(6-fluoro-indazol-2-yl)-phenoxy]-butyl}-benzoylamino)-propionic acid]",192 nM,175 nM
"O=C(O)CCNC(=O)c1ccc(C(Nc2ccc(-n3cnc(C(F)(F)F)c3)nc2)C2CCCC2)cc1 (single isomer, unassigned) [Example 97, 3-(4-(cyclopentyl(6-(4-(trifluoromethyl)-1H-imidazol-1-yl)pyridin-3-ylamino)methyl)benzamido)propanoic acid]",90.8 nM,93 nM
"O=C(O)CCNC(=O)c1ccc(C(Nc2ccc(-n3cnc(C(F)(F)F)c3)nc2)C2CCCC2)cc1 (single isomer, unassigned) [Example 98, 3-(4-(cyclopentyl(6-(4-(trifluoromethyl)-1H-imidazol-1-yl)pyridin-3-ylamino)methyl)benzamido)propanoic acid]",1060 nM,1100 nM
"CCCC(Nc1ccc(-n2cc(C(F)(F)F)cn2)nc1)c1ccc(C(=O)NCCC(=O)O)cc1F (single isomer, unassigned) [Example 109, 3-(3-fluoro-4-(1-(6-(4-(trifluoromethyl)-1H-pyrazol-1-yl)pyridin-3-ylamino)butyl)benzamido)propanoic acid]",1710 nM,153 nM
"CCCC(Nc1ccc(-n2cc(C(F)(F)F)cn2)nc1)c1ccc(C(=O)NCCC(=O)O)cc1F (single isomer, unassigned) [Example 110, 3-(3-fluoro-4-(1-(6-(4-(trifluoromethyl)-1H-pyrazol-1-yl)pyridin-3-ylamino)butyl)benzamido)propanoic acid]",97 nM,57.2 nM
"CCCC(Nc1ccc(-n2cc(C(F)(F)F)cn2)nc1)c1ccc(C(=O)NCCC(=O)O)cc1C (single isomer, unassigned) [Example 111, 3-(3-methyl-4-(1-(6-(4-(trifluoromethyl)-1H-pyrazol-1-yl)pyridin-3-ylamino)butyl)benzamido)propanoic acid]",2350 nM,202 nM
"CCCC(Nc1ccc(-n2cc(C(F)(F)F)cn2)nc1)c1ccc(C(=O)NCCC(=O)O)cc1C (single isomer, unassigned) [Example 112]",126 nM,143 nM
"CC1(C)CC(C(Nc2ccc(-n3cc(C(F)(F)F)cn3)nc2)c2ccc(C(=O)NCCC(=O)O)cc2)C1 (single isomer, unassigned) [Example 114, 3-(4-((3,3-dimethylcyclobutyl)(6-(4-(trifluoromethyl)-1H-pyrazol-1-yl)pyridin-3-ylamino)methyl)benzamido)propanoic acid]",17 nM,7.6 nM
"CC1(C)CC(C(Nc2ccc(-n3cc(C(F)(F)F)cn3)nc2)c2ccc(C(=O)NCCC(=O)O)cc2)C1 (single isomer, unassigned) [Example 115, 3-(4-((3,3-dimethylcyclobutyl)(6-(4-(trifluoromethyl)-1H-pyrazol-1-yl)pyridin-3-ylamino)methyl)benzamido)propanoic acid]",231 nM,15.8 nM
"CCCC(Oc1ccc(-n2cc3ccccc3n2)c(C)c1)c1ccc(C(=O)NCCC(=O)O)cc1 (single isomer, unassigned) [Example 116, 3-(4-(1-(4-(2H-indazol-2-yl)-3-methylphenoxy)butyl)benzamido)propanoic acid]",450 nM,464 nM
"O=C(O)CCNC(=O)c1ccc(C(Nc2ccc(-n3cnc(Cl)c3)nc2)C2CCCC2)cc1 (single isomer, unassigned) [Example 120, 3-(4-((6-(4-chloro-1H-imidazol-1-yl)pyridin-3-ylamino)(cyclopentyl)methyl)benzamido)propanoic acid]",65 nM,225 nM
"CCCC(Nc1ccc(-n2cnc(-c3ccccc3)c2)nc1)c1ccc(C(=O)NCCC(=O)O)cc1 (single isomer, unassigned) [Example 129, 3-(4-(1-(6-(4-phenyl-1H-imidazol-1-yl)pyridin-3-ylamino)butyl)benzamido)propanoic acid]",13 nM,29.3 nM
"CC1(C)CC([C@@H](Nc2ccc(-n3cnc(C(F)(F)F)c3)nc2)c2ccc(C(=O)NCCC(=O)O)cc2)C1 (single isomer, unassigned) [Example 134, 3-(4-((3,3-dimethylcyclobutyl)(6-(4-(trifluoromethyl)-1H-imidazol-1-yl)pyridin-3-ylamino)methyl)benzamido)propanoic acid]",876 nM,110 nM
"CC1(C)CC([C@@H](Nc2ccc(-n3cnc(C(F)(F)F)c3)nc2)c2ccc(C(=O)NCCC(=O)O)cc2)C1 (single isomer, unassigned) [Example 135, 3-(4-((3,3-dimethylcyclobutyl)(6-(4-(trifluoromethyl)-1H-imidazol-1-yl)pyridin-3-ylamino)methyl)benzamido)propanoic acid]",28 nM,35 nM
